Biological target: GSK-3β (AA 1-420) (Homo sapiens, UniProt P49841)
Test: Inhibition of GSK-3, standard coupled enzyme system
Format: biochemical
Conditions: 20 μM ATP, 300 μM peptide, 20 nM GSK-3β, 30° C.
Description: Compounds were screened for their ability to inhibit GSK-3β (AA 1-420) activity using a standard coupled enzyme system (Fox et al. Protein Sci. 7, p. 2249 (1998)). Reactions were carried out in a solution containing 100 mM HEPES (pH 7.5), 10 mM MgCl2, 25 mM NaCl, 300 μM NADH, 1 mM DTT and 1.5% DMSO. Final substrate concentrations in the assay were 20 μM ATP (Sigma Chemicals, St Louis, Mo.) and 300 μM peptide (American Peptide, Sunnyvale, Calif.). Reactions were carried out at 30° C. and 20 nM GSK-3β. Final concentrations of the components of the coupled enzyme system were 2.5 mM phosphoenolpyruvate, 300 μM NADH, 30 μg/ml pyruvate kinase and 10 μg/ml lactate dehydrogenase.
An assay stock buffer solution was prepared containing all of the reagents listed above with the exception of ATP and the test compound of interest. The assay stock buffer solution (175 μl) was incubated in a 96 well plate with 5 μl of the test compound of interest at final concentrations spanning 0.002 μM to 30 μM at 30° C. for 10 min. Typically, a 12 point titration was conducted by preparing serial dilutions (from 10 mM compound stocks) with DMSO of the test compounds in daughter plates. The reaction was initiated by the addition of 20 μl of ATP (final concentration 20 μM). Rates of reaction were obtained using a Molecular Devices Spectramax plate reader (Sunnyvale, Calif.) over 10 min at 30° C. The Ki values were determined from the rate data as a function of inhibitor concentration.

Sequence of GSK-3β (AA 1-420) (P49841 whole entry, species assumed, the tested form may be a part): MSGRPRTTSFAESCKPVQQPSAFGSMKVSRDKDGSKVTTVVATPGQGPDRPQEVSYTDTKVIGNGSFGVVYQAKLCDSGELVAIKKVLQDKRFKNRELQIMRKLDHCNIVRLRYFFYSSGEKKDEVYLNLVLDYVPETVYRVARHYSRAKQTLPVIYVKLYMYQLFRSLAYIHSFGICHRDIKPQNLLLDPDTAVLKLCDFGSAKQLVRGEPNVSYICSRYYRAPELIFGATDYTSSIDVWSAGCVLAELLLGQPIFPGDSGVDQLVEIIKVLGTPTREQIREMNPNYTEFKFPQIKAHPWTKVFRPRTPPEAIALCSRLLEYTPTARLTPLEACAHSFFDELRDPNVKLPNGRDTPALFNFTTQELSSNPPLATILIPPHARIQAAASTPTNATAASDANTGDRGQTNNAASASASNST

Ki, < 4 µM:
Nc1n[nH]c2cc(=O)n(-c3ccc(Oc4ccccc4)cc3)nc12 [Compound I-4]
Nc1n[nH]c2cc(=O)n(-c3cccc([N+](=O)[O-])c3)nc12 [Compound I-7]
COc1cccc(-n2nc3c(N)n[nH]c3cc2=O)c1 [Compound I-1]
Nc1n[nH]c2cc(=O)n(-c3cccc(S(N)(=O)=O)c3)nc12 [Compound I-9]
Nc1n[nH]c2cc(=O)n(-c3ccccc3)nc12 [Compound I-2]
Nc1n[nH]c2cc(=O)n(-c3cccc(Cl)c3)nc12 [Compound I-8]
COc1cc2ncnc(Nc3n[nH]c4cc(=O)n(-c5cccc(C(F)(F)F)c5)nc34)c2cc1OC [Compound I-6]
Cc1ccc(-n2nc3c(N)n[nH]c3cc2=O)cc1 [Compound I-5]
